In ChEMBL document CHEMBL1142479, “Studies on the synthesis of neamine-dinucleosides and neamine-PNA conjugates and their interaction with RNA” (Bioorg Med Chem Lett, 2008) one finds Ratio and Kd data, which are given here for 14 compounds.

Test [1] in a line: Ratio of Kd for 18S RNA to Kd for 16S RNA.
The nature of test [2]: Binding affinity to 16S RNA by surface plasmon resonance.
The nature of test [3]: Binding affinity to 18S RNA by surface plasmon resonance. Background: Surface plasmon resonance follows binding to a sensor surface in real time, without labels.
Test [4] can be described thus: Binding affinity to trans-activation response RNA by surface plasmon resonance.

Molecules are shown by their SMILES.

A word on the Kd: it is the concentration at which binding is half-saturated. Lower therefore signals a tighter complex. On to `Cc1cn(CC(=O)N(CCN)CC(=O)NCCN(CC(=O)NCCN[C@H]2[C@@H](O)[C@H](N)C[C@H](N)[C@H]2O[C@H]2O[C@H](CN)[C@@H](O)[C@H](O)[C@H]2N)C(=O)Cn2ccc(=O)[nH]c2=O)c(=O)[nH]c1=O`, for which, in test [1], the Ratio stood at 2.08. Besides, the values for the Kd in test [2], in test [3] and in test [4] were 12 µM, 25 µM and 8 µM, respectively.
On the same counts, the results for `Cc1cn(CC(=O)N(CCN)CC(=O)NCCN[C@H]2[C@@H](O)[C@H](N)C[C@H](N)[C@H]2O[C@H]2O[C@H](CN)[C@@H](O)[C@H](O)[C@H]2N)c(=O)[nH]c1=O` are 1.38, 8 µM, 11 µM and 10 µM.
For `Cc1cn([C@H]2C[C@H](OP(=O)(O)OC[C@H]3O[C@@H](n4ccc(=O)[nH]c4=O)C[C@@H]3O)[C@@H](C(=O)NCCN[C@H]3[C@@H](O)[C@H](N)C[C@H](N)[C@H]3O[C@H]3O[C@H](CN)[C@@H](O)[C@H](O)[C@H]3N)O2)c(=O)[nH]c1=O`, the Ratio in test [1] was determined as 2.11. For the same compound, the Kd in test [2] was found to be 227 µM; in test [3], 479 µM; in test [4] it was 476 µM.
Consider `Cc1cn(CC(=O)N(CCNC(=O)CN(CCN)C(=O)Cn2ccc(=O)[nH]c2=O)CC(=O)NCCN[C@H]2[C@@H](O)[C@H](N)C[C@H](N)[C@H]2O[C@H]2O[C@H](CN)[C@@H](O)[C@H](O)[C@H]2N)c(=O)[nH]c1=O`, for which, in test [1], the Ratio came out at 1.81. In addition, the Kd in test [2] amounted to 11 µM; in test [3] it was 20 µM; in test [4], 6 µM.
Consider `NCCN(CC(=O)NCCN(CC(=O)NCCN[C@H]1[C@@H](O)[C@H](N)C[C@H](N)[C@H]1O[C@H]1O[C@H](CN)[C@@H](O)[C@H](O)[C@H]1N)C(=O)Cn1ccc(=O)[nH]c1=O)C(=O)Cn1ccc(=O)[nH]c1=O`, for which the Ratio in test [1] stood at 2.06. For the same compound, the Kd was 17 µM in test [2], 35 µM in test [3] and 11 µM in test [4].
On the same counts, the results for `NC[C@H]1O[C@H](O[C@H]2[C@H](O)[C@@H](O)[C@H](N)C[C@@H]2N)[C@H](N)[C@@H](O)[C@@H]1O` [NEAMINE] are 2.36, 11 µM, 26 µM and 11 µM.
For `NC[C@H]1O[C@H](O[C@H]2[C@@H](NCCNC(=O)[C@H]3O[C@@H](n4ccc(=O)[nH]c4=O)C[C@@H]3OP(=O)(O)OC[C@H]3O[C@@H](n4ccc(=O)[nH]c4=O)C[C@@H]3O)[C@@H](O)[C@H](N)C[C@@H]2N)[C@H](N)[C@@H](O)[C@@H]1O` the same measures were 2.24, 180 µM, 404 µM and 417 µM.
Turning to `NCCN(CC(=O)NCCN[C@H]1[C@@H](O)[C@H](N)C[C@H](N)[C@H]1O[C@H]1O[C@H](CN)[C@@H](O)[C@H](O)[C@H]1N)C(=O)Cn1ccc(=O)[nH]c1=O`, in test [1], the Ratio amounted to 1.21. For the same compound, the Kd in test [2] amounted to 14 µM; in test [3] it was 17 µM; in test [4] it was 24 µM.
On the same counts, the results for `Cc1cn([C@H]2C[C@H](O)[C@@H](COP(=O)(O)O[C@H]3C[C@H](n4ccc(=O)[nH]c4=O)O[C@@H]3C(=O)NCCN[C@H]3[C@@H](O)[C@H](N)C[C@H](N)[C@H]3O[C@H]3O[C@H](CN)[C@@H](O)[C@H](O)[C@H]3N)O2)c(=O)[nH]c1=O` are 3.45, 352 µM, 1210 µM and 1000 µM.
For `Cc1cn([C@H]2C[C@H](OP(=O)(O)OC[C@H]3O[C@@H](n4cc(C)c(=O)[nH]c4=O)C[C@@H]3O)[C@@H](C(=O)NCCN[C@H]3[C@@H](O)[C@H](N)C[C@H](N)[C@H]3O[C@H]3O[C@H](CN)[C@@H](O)[C@H](O)[C@H]3N)O2)c(=O)[nH]c1=O` the same measures were 1.8, 304 µM, 548 µM and 634 µM.
For `Cc1cn([C@H]2C[C@H](OP(=O)(O)OC[C@H]3O[C@@H](n4cc(C)c(=O)[nH]c4=O)C[C@@H]3O)[C@@H](C(=O)NCCCN[C@H]3[C@@H](O)[C@H](N)C[C@H](N)[C@H]3O[C@H]3O[C@H](CN)[C@@H](O)[C@H](O)[C@H]3N)O2)c(=O)[nH]c1=O` the same measures were 1.76, 316 µM, 555 µM and 533 µM.
In the case of `Cc1cn(CC(=O)N(CCN)CC(=O)NCCN(CC(=O)NCCN[C@H]2[C@@H](O)[C@H](N)C[C@H](N)[C@H]2O[C@H]2O[C@H](CN)[C@@H](O)[C@H](O)[C@H]2N)C(=O)Cn2cc(C)c(=O)[nH]c2=O)c(=O)[nH]c1=O`, the Ratio in test [1] amounted to 1.11. For the same compound, the figures for the Kd in test [2], in test [3] and in test [4] were 9 µM, 10 µM and 5 µM, respectively.
For `Cc1cn([C@H]2C[C@H](OP(=O)(O)OC[C@H]3O[C@@H](n4cc(C)c(=O)[nH]c4=O)C[C@@H]3O)[C@@H](C(=O)NCCCCCCN[C@H]3[C@@H](O)[C@H](N)C[C@H](N)[C@H]3O[C@H]3O[C@H](CN)[C@@H](O)[C@H](O)[C@H]3N)O2)c(=O)[nH]c1=O` the same measures were 1.28, 208 µM, 266 µM and 115 µM.
For `NCCN(CC(=O)NCCN[C@H]1[C@@H](O)[C@H](N)C[C@H](N)[C@H]1O[C@H]1O[C@H](CN)[C@@H](O)[C@H](O)[C@H]1N)C(=O)Cn1cnc2c(N)ncnc21`, the Ratio in test [1] was found to be 0.75. Moreover, the Kd in test [2] turned out to be 16 µM; in test [3], 12 µM; in test [4], 12 µM.
